Results as given in US20220089575A1, “FARNESOID X RECEPTOR AGONISTS AND USES THEREOF” (Metacrine, Inc., priority 2017, published 2022).

The compounds below were run against T1, hFXR (Homo sapiens, UniProt Q96RI1) (assay: In Vitro FXR Assay (TK): TK-ECRE-luc reporter in transfected CV-1 cells). Settings: 18 hrs, luminescence, maximum efficacy of <25% of the Fexarmine control classified as '+'.
T1 construct: expressed in transfected cells; host or cells: CV-1 cells
T1 sequence (Q96RI1 1-486): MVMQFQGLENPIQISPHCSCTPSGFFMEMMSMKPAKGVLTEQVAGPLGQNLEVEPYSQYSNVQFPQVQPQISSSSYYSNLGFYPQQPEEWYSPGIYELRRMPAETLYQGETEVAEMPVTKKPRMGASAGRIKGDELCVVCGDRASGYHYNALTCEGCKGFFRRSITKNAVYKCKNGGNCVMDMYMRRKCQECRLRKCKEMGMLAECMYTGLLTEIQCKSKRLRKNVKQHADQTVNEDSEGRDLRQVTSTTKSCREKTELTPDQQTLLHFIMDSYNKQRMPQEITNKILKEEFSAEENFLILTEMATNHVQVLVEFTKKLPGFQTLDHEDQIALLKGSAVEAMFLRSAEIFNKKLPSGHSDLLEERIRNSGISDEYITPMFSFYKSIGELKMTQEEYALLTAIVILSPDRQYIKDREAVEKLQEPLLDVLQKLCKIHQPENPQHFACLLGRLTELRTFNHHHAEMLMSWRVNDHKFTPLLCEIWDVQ
T1 sequence (P19793 1-462 partner): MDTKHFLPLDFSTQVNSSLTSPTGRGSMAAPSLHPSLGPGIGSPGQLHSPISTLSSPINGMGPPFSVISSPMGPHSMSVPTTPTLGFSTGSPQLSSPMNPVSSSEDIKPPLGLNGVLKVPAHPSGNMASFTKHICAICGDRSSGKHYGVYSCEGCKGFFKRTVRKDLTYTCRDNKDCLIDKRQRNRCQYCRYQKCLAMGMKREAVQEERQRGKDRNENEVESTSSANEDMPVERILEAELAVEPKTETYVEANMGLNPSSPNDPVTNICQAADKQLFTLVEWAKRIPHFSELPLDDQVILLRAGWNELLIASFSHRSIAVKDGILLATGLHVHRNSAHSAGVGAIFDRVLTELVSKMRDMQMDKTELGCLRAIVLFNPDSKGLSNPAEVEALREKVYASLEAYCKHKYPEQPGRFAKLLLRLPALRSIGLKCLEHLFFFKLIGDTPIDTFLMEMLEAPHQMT
Format: cell-based
How it was run: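 CV-1 cells transiently co-transfected with hFXR, hRXR, TK-ECRE-luc and pCMX-YFP plasmids in charcoal-stripped serum medium. Serially diluted compounds added, cells incubated 18 h at 37° C, then lysed and luminescence read.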

EC50, ≤ 250 nM:
COc1ccc([C@H]2CC[C@H](CN(c3cc(-c4cnn(C(C)C)c4)ccn3)C(=O)[C@H]3CC[C@H](OC(=O)N4CC(OC)C4)CC3)CC2)nc1C [Compound 7.55, trans-4-((4-(1-Isopropyl-1H-pyrazol-4-yl)pyridin-2-yl)((trans-4-(5-methoxy-6-methylpyridin-2-yl)cyclohexyl)methyl)carbamoyl)cyclohexyl 3-methoxyazetidine-1-carboxylate]
COc1ccc([C@H]2CC[C@H](CN(c3cc(-c4cnn(C(C)C)c4)ccn3)C(=O)[C@H]3CC[C@H](OC(=O)N4CC(OC(C)C)C4)CC3)CC2)nc1C [Compound 7.56, trans-4-((4-(1-Isopropyl-1H-pyrazol-4-yl)pyridin-2-yl)((trans-4-(5-methoxy-6-methylpyridin-2-yl)cyclohexyl)methyl)carbamoyl)cyclohexyl 3-isopropoxyazetidine-1-carboxylate]
COc1ccc([C@H]2CC[C@H](CN(c3cc(-c4cnn(C(C)C)c4)ccn3)C(=O)[C@H]3CC[C@H](OC(=O)N4CC(C(C)C)C4)CC3)CC2)nc1C [Compound 7.57, trans-4-((4-(1-Isopropyl-1H-pyrazol-4-yl)pyridin-2-yl)((trans-4-(5-methoxy-6-methylpyridin-2-yl)cyclohexyl)methyl)carbamoyl)cyclohexyl 3-isopropylazetidine-1-carboxylate]
COc1ccc([C@H]2CC[C@H](CN(c3cc(-c4cnn(C(C)C)c4)ccn3)C(=O)[C@H]3CC[C@H](OC(=O)N4CC(N(C)C)C4)CC3)CC2)nc1C [Compound 7.58, trans-4-((4-(1-Isopropyl-1H-pyrazol-4-yl)pyridin-2-yl)((trans-4-(5-methoxy-6-methylpyridin-2-yl)cyclohexyl)methyl)carbamoyl)cyclohexyl 3-(dimethylamino)azetidine-1-carboxylate]
COc1ccc([C@H]2CC[C@H](CN(c3cc(-c4cnn(C(C)C)c4)ccn3)C(=O)[C@H]3CC[C@H](OC(=O)N4CC(CO)C4)CC3)CC2)nc1C [Compound 7.59, trans-4-((4-(1-Isopropyl-1H-pyrazol-4-yl)pyridin-2-yl)((trans-4-(5-methoxy-6-methylpyridin-2-yl)cyclohexyl)methyl)carbamoyl)cyclohexyl 3-(hydroxymethyl)azetidine-1-carboxylate]
CCC1CN(C(=O)O[C@H]2CC[C@H](C(=O)N(C[C@H]3CC[C@H](c4ccc(OC)c(C)n4)CC3)c3cccc(-c4cnn(C(C)C)c4)c3)CC2)C1 [Compound 7.60, trans-4-((3-(1-Isopropyl-1H-pyrazol-4-yl)phenyl)((trans-4-(5-methoxy-6-methylpyridin-2-yl)cyclohexyl)methyl)carbamoyl)cyclohexyl 3-ethylazetidine-1-carboxylate]
COc1ccc([C@H]2CC[C@H](CN(c3cccc(-c4cnn(C(C)C)c4)c3)C(=O)[C@H]3CC[C@H](OC(=O)N4CC(CO)C4)CC3)CC2)nc1C [Compound 7.61, trans-4-((3-(1-Isopropyl-1H-pyrazol-4-yl)phenyl)((trans-4-(5-methoxy-6-methylpyridin-2-yl)cyclohexyl)methyl)carbamoyl)cyclohexyl 3-(hydroxymethyl)azetidine-1-carboxylate]
COc1ccc([C@H]2CC[C@H](CN(c3cccc(-c4coc(C5CC5)n4)c3)C(=O)[C@H]3CC[C@H](OC(=O)N4CC(O)C4)CC3)CC2)cc1C [Compound 7.62, trans-4-((3-(2-Cyclopropyloxazol-4-yl)phenyl)((trans-4-(4-methoxy-3-methylphenyl)cyclohexyl)methyl)carbamoyl)cyclohexyl 3-hydroxyazetidine-1-carboxylate]
CN(C)c1ccc([C@H]2CC[C@H](CN(c3cccc(-c4coc(C5CC5)n4)c3)C(=O)[C@H]3CC[C@H](OC(=O)N4CC(O)C4)CC3)CC2)cn1 [Compound 7.63, trans-4-((3-(2-Cyclopropyloxazol-4-yl)phenyl)((trans-4-(6-(dimethylamino)pyridine-3-yl)cyclohexyl)methyl)carbamoyl)cyclohexyl 3-hydroxyazetidine-1-carboxylate]
COc1ccc([C@H]2CC[C@H](CN(c3cccc(-c4coc(C(C)C)n4)c3)C(=O)[C@H]3CC[C@H](OC(=O)N4CC(O)C4)CC3)CC2)cc1C [Compound 7.64, trans-4-((3-(2-Isopropyloxazol-4-yl)phenyl)((trans-4-(4-methoxy-3-methylphenyl)cyclohexyl)methyl)carbamoyl)cyclohexyl 3-hydroxyazetidine-1-carboxylate]
COc1ccc([C@H]2CC[C@H](CN(c3cccc(-c4coc(C(C)C)n4)c3)C(=O)[C@H]3CC[C@H](OC(=O)N4CC(O)C4)CC3)CC2)nc1C [Compound 7.65, trans-4-((3-(2-Isopropyloxazol-4-yl)phenyl)((trans-4-(5-methoxy-6-methylpyridin-2-yl)cyclohexyl)methyl)carbamoyl)cyclohexyl 3-hydroxyazetidine-1-carboxylate]
COc1ccc([C@H]2CC[C@H](CN(c3cccc(-c4coc(C5CC5)n4)c3)C(=O)[C@H]3CC[C@H](OC(=O)N4CC(O)C4)CC3)CC2)nc1C [Compound 7.66, trans-4-((3-(2-Cyclopropyloxazol-4-yl)phenyl)((trans-4-(5-methoxy-6-methylpyridin-2-yl)cyclohexyl)methyl)carbamoyl)cyclohexyl 3-hydroxyazetidine-1-carboxylate]
COc1ccc([C@H]2CC[C@H](CN(c3cc(-c4coc(C5CC5)n4)ccn3)C(=O)[C@H]3CC[C@H](OC(=O)N4CC(O)C4)CC3)CC2)cc1C [Compound 7.67, trans-4-((4-(2-Cyclopropyloxazol-4-yl)pyridine-2-yl)((trans-4-(4-methoxy-3-methylphenyl)cyclohexyl)methyl)carbamoyl)cyclohexyl 3-hydroxyazetidine-1-carboxylate]
COc1ccc([C@H]2CC[C@H](CN(c3cccc(-c4coc(C5CC5)n4)c3)C(=O)[C@H]3CC[C@H](OC(=O)N4CC(O)C4)CC3)CC2)cc1C#N [Compound 7.68, trans-4-(((trans-4-(3-Cyano-4-methoxyphenyl)cyclohexyl)methyl)(3-(2-cyclopropyloxazol-4-yl)phenyl)carbamoyl)cyclohexyl 3-hydroxyazetidine-1-carboxylate]
COc1ccc([C@H]2CC[C@H](CN(c3cc(-c4coc(C5CC5)n4)ccn3)C(=O)[C@H]3CC[C@H](OC(=O)N4CC(O)C4)CC3)CC2)cc1C#N [Compound 7.69, trans-4-(((trans-4-(3-Cyano-4-methoxyphenyl)cyclohexyl)methyl)(4-(2-cyclopropyloxazol-4-yl)pyridine-2-yl)carbamoyl)cyclohexyl 3-hydroxyazetidine-1-carboxylate]
COc1ccc([C@H]2CC[C@H](CN(c3cccc(-c4coc(C5CC5)n4)c3)C(=O)[C@H]3CC[C@H](OC(=O)N4CC(O)C4)CC3)CC2)nc1C#N [Compound 7.70, trans-4-(((trans-4-(6-Cyano-5-methoxypyridin-2-yl)cyclohexyl)methyl)(3-(2-cyclopropyloxazol-4-yl)phenyl)carbamoyl)cyclohexyl 3-hydroxyazetidine-1-carboxylate]
COc1ccc([C@H]2CC[C@H](CN(c3cc(-c4coc(C(C)C)n4)ccn3)C(=O)[C@H]3CC[C@H](OC(=O)N4CC(O)C4)CC3)CC2)nc1C [Compound 7.71, trans-4-((4-(2-Isopropyloxazol-4-yl)pyridine-2-yl)((trans-4-(5-methoxy-6-methylpyridin-2-yl)cyclohexyl)methyl)carbamoyl)cyclohexyl 3-hydroxyazetidine-1-carboxylate]
COc1ccc([C@H]2CC[C@H](CN(c3cc(-c4coc(C5CC5)n4)ccn3)C(=O)[C@H]3CC[C@H](OC(=O)N4CC(O)C4)CC3)CC2)nc1C#N [Compound 7.72, trans-4-(((trans-4-(6-Cyano-5-methoxypyridin-2-yl)cyclohexyl)methyl)(4-(2-cyclopropyloxazol-4-yl)pyridine-2-yl)carbamoyl)cyclohexyl 3-hydroxyazetidine-1-carboxylate]
